Read-outs that look alike come from different tables or passages of the source.
Assays:
[1] = system: β-adrenoreceptor; experiment: β-adrenergic blocking activity in anesthetized dogs (antagonism to isoprenaline effects on heart rate, diastolic blood pressure and air-way resistance); format: in vivo; conditions: 10 minutes after i.v. test compound 300 μg/kg; for Inhibition (%) dBP (Diastolic Blood Pressure): antagonism to isoprenaline (1 μg/kg i.v.) induced depression of diastolic blood pressure; for Inhibition (%) dBP (Diastolic Blood Pressure) / Inhibition (%) AR (AirWay Resistance): dogs; for Inhibition (%) HR (Heart Rate): antagonism to isoprenaline (1 μg/kg i.v.) induced increase in heart rate, male hybrid adult dogs; for Inhibition (%) AR (AirWay Resistance): antagonism to isoprenaline depression of histamine (5 μg/kg i.v.) induced increase of air-way resistance
Description: The β-adrenergic blocking activity of the compounds of this invention was determined as follows:
Male hybrid adult dogs, weighing 10 to 16 kg, were anesthesized with sodium pentobarbital administered intravenously at a level of 30 mg/kg of body weight, and a cannula was inserted into the trachea of each of the anesthesized dogs. In order to avoid blood coagulation, heparin was administered intravenously at a level of 1000 units and thereafter a cannula was inserted into the right femoral artery. The experiments were conducted under artificial respiration at a rate of 20 ml/kg, 18 r.p.m.
The above parameters were continuously recorded on a polygraph (8S 28 Type, tradename of Sanei Sokki Co., Japan). During the experiment, gallamine was administered intravenously at a dosage of 3 mg/kg at one-hour intervals to avoid fluctuation of air-way resistance.
The β-adrenergic blocking activity of each of the test compounds was evaluated in terms of antagonism (Inhibition %) to the depression at the diastolic blood pressure (dBP) and to the increase in the heart rate induced by the intravenous administration of isoprenaline (1 μg/kg) and in terms of antagonism (Inhibition %) to the depression by isoprenaline in increase of air-way resistance which was induced by intravenous administration of histamine (5 μg/kg). In this case, histamine was administered 45 seconds after the administration of isoprenaline.

[2] = acute toxicity (LD50), i.v. and p.o.; set-up: species or system rats; conditions: rat, in vivo
Description: Further, the acute toxicity of the compounds of the present invention having the formula (I) was determined by intravenous administration (i.v.) and oral administration (p.o.) in 5 to 6 group of rats (dd, strain; body weight, 18 to 22 g; 10 rats in each group) which have been fasted for 12 hours prior to the test.

SMILES	Inhibition (%) dBP (Diastolic Blood Pressure) [1] [%]	Inhibition (%) HR (Heart Rate) [1] [%]	Inhibition (%) AR (AirWay Resistance) [1] [%]	LD50 ([2]; iv, Rats (Female), read-out: LD50 (50% lethal dose) i.v.) [mg/kg]	LD50 ([2]; iv, Rats (Male), read-out: LD50 (50% lethal dose) i.v.) [mg/kg]	LD50 ([2]; po, Rats (Female), read-out: LD50 (50% lethal dose) p.o.) [mg/kg]	LD50 ([2]; po, Rats (Male), read-out: LD50 (50% lethal dose) p.o.) [mg/kg]
CC(C)(C)NCC(O)COc1ccc(O)c2c1CCC(=O)N2 (stereo not drawn) [Prior Art Compound 1, reference compound]	100	100	100	–	–	–	–
C#CCOc1ccc(OCC(O)CNC(C)(C)C)c2c1NC(=O)CC2 (stereo not drawn) [Sample 6]	94.5	100	47.6	–	–	–	–
CC(C)(C)NCC(O)COc1ccc(OCc2ccccc2)c2c1CCC(=O)N2 (stereo not drawn) [Prior Art Compound 3, reference compound]	10.2	71.3	67.8	–	–	–	–
COc1ccc(OCC(O)CNC(C)(C)C)c2c1NC(=O)CC2 (stereo not drawn) [Prior Art Compound 2, reference compound]	83.7	82.1	80.2	–	–	–	–
C#CCOc1ccc(OCC(O)CNC(c2ccccc2)c2ccccc2)c2c1NC(=O)CC2 (stereo not drawn) [Sample 7]	20.5	18.4	8.0	–	–	–	–
COc1ccc(CCNCC(O)COc2ccc(OCC(N)=O)c3c2CCC(=O)N3)cc1OC (stereo not drawn) [Sample 12]	44.2	57.9	15.2	–	–	–	–
COCCOc1ccc(OCC(O)CNCCOc2ccc(OC)cc2)c2c1NC(=O)CC2 (stereo not drawn) [Sample 20]	18.1	23.7	8.3	–	–	–	–
COCCOc1ccc(OCC(O)CNCCc2ccc(OC)c(OC)c2)c2c1NC(=O)CC2 (stereo not drawn) [Sample 1]	28.3	45.5	25.0	–	–	–	–
C=CCOc1ccc(OCC(O)CNCC(c2ccccc2)c2ccccc2)c2c1NC(=O)CC2 (stereo not drawn) [Sample 10]	20.4	25.8	3.5	–	–	–	–
C=CCOc1ccc(OCC(O)CNCCc2ccc(OC)c(OC)c2)c2c1NC(=O)CC2 (stereo not drawn) [Sample 2]	23.5	50.2	24.5	–	–	–	–
C=CCOc1ccc(OCC(O)CNC(C)(C)C)c2c1NC(=O)CC2.Cl (stereo not drawn) [Sample 18, 8-allyloxy-5-(3-t-butylamino-2-hydroxypropoxy)-3,4-dihydrocarbostyril hydrochloride]	100	34.6	0	–	–	–	–
C#CCOc1ccc(OCC(O)CNCCc2ccc(OC)c(OC)c2)c2c1NC(=O)CC2 (stereo not drawn) [Sample 3]	39.5	57.6	14.0	–	–	–	–
COc1ccc(CCNCC(O)COc2ccc(OCCO)c3c2CCC(=O)N3)cc1OC (stereo not drawn) [Sample 8]	16.8	26.3	8.1	–	–	–	–
COCCOc1ccc(OCC(O)CNCCc2ccc(OC)c(OC)c2)c2c1NC(=O)CC2.O=C(O)/C=C\C(=O)O (stereo not drawn) [8-(2-methoxyethoxy)-5-[3-(3,4-dimethoxyphenethylamino)-2-hydroxypropoxy]-3,4-dihydrocarbostyril maleate]	–	–	–	160	185	1450	1550
COc1ccc(CCNCC(O)COc2ccc(OCC(=O)O)c3c2CCC(=O)N3)cc1OC (stereo not drawn) [Sample 19]	–	50.0	9.4	–	–	–	–
CC(C)NCC(O)COc1ccc(OC(=O)C2CCCCC2)c2c1CCC(=O)N2 (stereo not drawn) [Sample 14]	36.3	43.2	27.6	–	–	–	–
COc1ccc(CCNCC(O)COc2ccc(OCC(=O)O)c3c2CCC(=O)N3)cc1OC (stereo not drawn) [Sample 11]	47.1	50.0	9.4	–	–	–	–
CC(C)NCC(O)COc1ccc(CC(N)=O)cc1 (stereo not drawn) [Atenolol, reference compound]	26.9	52.3	9.8	–	–	–	–
C#CCOc1ccc(OCC(O)CNC(C)(C)Cc2ccccc2)c2c1NC(=O)CC2 (stereo not drawn) [Sample 9]	75.7	61.7	41.3	–	–	–	–
CC(=O)Oc1ccc(OCC(O)CNC(C)(C)C)c2c1N(Cc1ccccc1)C(=O)CC2 (stereo not drawn) [Sample 13]	77.5	85.2	59.3	–	–	–	–
CCOC(=O)COc1ccc(OCC(O)CNCCc2ccc(OC)c(OC)c2)c2c1NC(=O)CC2 (stereo not drawn) [Sample 15]	8.5	10.2	2.7	–	–	–	–
COCCOc1ccc(OCC(O)CNC(C)C)c2c1NC(=O)CC2 (stereo not drawn) [Sample 17]	34.1	41.8	9.7	–	–	–	–
COc1ccc(CCNCC(O)COc2cccc3c2CCC(=O)N3)cc1OC (stereo not drawn) [Comparison Compound 2, reference compound]	65.6	87.2	79.1	–	–	–	–
C#CCOc1ccc(OCC(O)CNCC=C)c2c1NC(=O)CC2 (stereo not drawn) [Sample 5]	35.0	50.5	24.3	–	–	–	–
C#CCOc1ccc(OCC(O)CNCCc2ccc(OC)c(OC)c2)c2ccc(=O)[nH]c12 (stereo not drawn) [Sample 16]	40.9	55.3	13.7	–	–	–	–
CC(C)(C)NCC(O)COc1cccc2c1CCC(=O)N2 (stereo not drawn) [Comparison Compound 1, reference compound]	100	100	100	–	–	–	–
C#CCOc1ccc(OCC(O)CNC2CCCCC2)c2c1NC(=O)CC2 (stereo not drawn) [Sample 21]	22.0	17.3	8.3	–	–	–	–
COc1ccc(CCNCC(O)COc2ccc(OCC(C)=O)c3c2CCC(=O)N3)cc1OC (stereo not drawn) [Sample 4]	15.1	44.6	2.7	–	–	–	–
